This is an account of results in patent publication US11850244B2, “Drug delivery systems and methods for treatment of bladder dysfunction or disorder using trospium” (TARIS BIOMEDICAL LLC, priority 2012, dated 2023).

Data set [1] can be described thus: Antimuscarinic screen in rat bladder perfusion model (plasma, urine and tissue drug levels). The following applies: for total recovery: theoretical dose 3.3 mg/day. The source says: The drugs were perfused at varying rates, concentrations, and times. Serial blood and urine samples were taken, and tissues (bladder, ureter, kidney, and prostate) were sampled to determine drug levels and distribution. Tissue histological exams were completed for safety.

Data set [2] relates to carbachol 30 μM (M1, M2, M3, AChRa2 agonist). The following applies: low dose protocol 0.1 and 0.5 μg/mL, intravesical; cited from earlier work.
The test system of the next data set is urothelium. In words: Intravesical pharmacology screen in rat bladder perfusion model with acetic acid. The following applies: for acetic acid induced increased intravesical pressure / inter-contraction intervals compared to the control: 0.05-100 μg/mL intravesical, 0.5% acetic acid; for acetic acid induced increased intravesical pressure: FIGS. 7A-7C; for inter-contraction intervals compared to the control: FIGS. 7D-7F. How it is done: Intercontraction intervals and intravesical pressure were measured during a control periods and treatment periods.
The rats' bladder catheters were connected to a pressure transducer and syringe-pump to allow perfusion. The bladders were perfused (50 μL/minute) with saline for one hour to obtain stable micturition cycles. The perfusion then was switched to a weak acidic solution sufficient to stimulate the noxious receptors in the urothelium without inducing structural or metabolic damage to the tissue. […] A 45 minute baseline was recorded.
The vehicle or antimuscarinic drugs were administered intravesically at escalating concentrations (see Table 2 for drugs and concentrations used) with acetic acid instillation (50 μL/minute). Each dose was administered for a 30-minute period. The intravesical pressure and intercontraction interval was recorded during the last 30 minutes of the control period (baseline) and during the 30 minutes of each treatment period, with one treatment period corresponding to one dose of drug.

The conditions of data set [3]: oral therapeutic doses for 5 days; cited from earlier work.
Another data set concerns normal bladder activity. The following applies: human urine after oral dosing infused into rat bladders; cited from earlier work.

In general, Cmax refers to the peak of the concentration-time curve.

“Also recorded” adds a separate entry of the source. Structures can show the parent of a compound that is named as a salt. Bounds are passed on as bounds.

On to `CCN(CC)CC#CCOC(=O)C(O)(c1ccccc1)C1CCCCC1` (stereo not drawn) [Oxybutynin, oxybutynin chloride], for which the “systemic absorption following intravesical administration” value in data set [1] (compared among the three drugs) is given as “significantly higher systemic absorption”. Besides, the estimated intravesical absorption in data set [1] (rat, in vivo) is given as 83 % of the intravesical dose. Moreover, the “Effective Urine Concentration” value in data set [1] (rat, intravesical perfusion) is 1 to 10 µg/mL. Also, the total recovery entry in data set [1] is “low total recovery”. The “intercontraction interval ratio to baseline” value in data set [2] is “performed similarly”. In the data set with urothelium, the “acetic acid induced increased intravesical pressure” value is “dose dependent reductions” and the “inter-contraction intervals compared to the control” value is given as “neither of which altered intercontraction interval”. Further, in the data set on urothelium (listed as oxybutynin hydrochloride), the “inter-contraction intervals compared to the control” value is listed as “little effect”.

For the compound dimethindene maleate, the “intercontraction interval ratio to baseline” value in data set [2] was “performed similarly”.

For `Cc1ccc(O)c([C@H](CCN(C(C)C)C(C)C)c2ccccc2)c1` [Toterodine, tolterodine tartrate], the “Effective Urine Concentration” value in data set [1] (rat, intravesical perfusion) lay in the range of 1 to 10 µg/mL. Further, in the data set on urothelium, the “acetic acid induced increased intravesical pressure” value is on record as “dose dependent reductions”. Further, the “inter-contraction intervals compared to the control” value in the data set on urothelium (listed as tolterodine) is “neither of which altered intercontraction interval”; with urothelium (listed as tolterodine tartrate), “little effect”.

As to `O=C(O[C@H]1C[C@H]2CC[C@@H](C1)[N+]21CCCC1)C(O)(c1ccccc1)c1ccccc1` [Trospium, trospium chloride], the urine concentration entry was “about 150 μg/mL” in data set [1] (24-48 hours after exposure) and over 125 µg/mL in data set [1] (48-72 hours after exposure). Besides, the Cmax in data set [1] (rat, in vivo) was in the range of 0.06 to 0.7 ng/mL. For the same compound, the “Effective Urine Concentration” value in data set [1] (rat, intravesical perfusion) fell in the range of 1 to 10 µg/mL. In addition, the “Urine to Plasma Ratio” value in data set [1] (rat, intravesical perfusion) is 15,380. Besides, the total recovery entry in data set [1] is “near the theoretical dose”. In addition, the “intercontraction interval ratio to baseline” value in data set [2] is “performed similarly”. Further, in data set [3], the “active compound excreted in the human's urine” value is listed as 60-80%. In the data set on urothelium, the “acetic acid induced increased intravesical pressure” value is recorded as “dose dependent reductions”. Moreover, the “inter-contraction intervals compared to the control” value with urothelium (listed as trospium) is “increase intercontraction interval; also recorded: increased the inter-contraction intervals compared to the control”; with urothelium (listed as trospium chloride), “kept the inter-contraction intervals closer to the baseline measurement”. Moreover, the “urinary retention or significant systemic exposure” value in the data set with urothelium (at intravesical concentration normalizing urothelial sensory function) is given as “did not produce urinary retention or significant systemic exposure”. The “concentration range showing activity” value with urothelium (intravesical) fell in the range of 0.05 to 100 µg/mL. Besides, the “effect on bladder capacity and intercontraction interval” value in the data set on normal bladder activity is on record as “more positive effect”.
